Patent US11214803B2, “Modulators of YAP1 expression” (Ionis Pharmaceuticals, Inc., priority 2019, dated 2022)
Strand notation (5' to 3'): a small letter for the sugar, then the base; units joined by * are phosphorothioate-linked, units joined directly phosphodiester-linked; [ ] holds rarer units or linkages, { } end groups; capitals alone tell only the bases. k = constrained ethyl (cEt); [5mC] = 5-methylcytosine; d = 2'-deoxy (DNA)

Tested on: Yap1 mRNA
Test: Antisense inhibition of human Yap1 in A-431 cells by cEt gapmers, single dose (Example 3, RTS36584)
Type: cell-based
Conditions: Table 8; A-431 cells, 5,000 cells per well, free uptake, 2,000 nM, approximately 48 hours; RTS36584; normalized to RIBOGREEN; Yap1 mRNA relative to untreated control cells
Procedure, shortened: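 Values are % untreated control: Yap1 mRNA by quantitative RT-PCR (RTS36584), normalized to total RNA by RiboGreen. Before RNA isolation, 5,000 A-431 cells per well were exposed ~48 h to 2,000 nM 16-mer cEt gapmer, delivered without transfection reagent.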

Substance	YAP1 (% UTC)
958390 (antisense kG*k[5mC]*kG*dA*dA*dG*dG*dT*dG*d[5mC]*dG*dG*dA*kG*k[5mC]*kG) [Compound 958390]	145
958367 (antisense k[5mC]*kT*kA*dG*d[5mC]*dT*dT*dG*dG*dT*dG*dG*d[5mC]*kA*kG*k[5mC]) [Compound 958367]	105
958388 (antisense kG*kG*kA*dG*dG*d[5mC]*dG*d[5mC]*dG*d[5mC]*dG*d[5mC]*dA*kT*kT*kG) [Compound 958388]	112
958362 (antisense kA*kG*k[5mC]*dT*d[5mC]*dG*dA*dA*d[5mC]*dA*dT*dG*d[5mC]*kT*kG*kT) [Compound 958362]	58

Same assay, conditions: Table 9; A-431 cells, 5,000 cells per well, free uptake, 2,000 nM, approximately 48 hours; RTS36584; normalized to RIBOGREEN; Yap1 mRNA relative to untreated control cells

Substance	YAP1 (% UTC)
958646 (kT*kA*kT*dT*dA*dT*dA*dT*dG*dG*d[5mC]*dT*dA*kA*kG*k[5mC]; antisense) [Compound 958646]	26
958601 (k[5mC]*k[5mC]*kT*dT*dT*dA*dA*dA*dG*dG*d[5mC]*dA*d[5mC]*kT*kA*k[5mC]; antisense) [Compound 958601]	17
958771 (antisense k[5mC]*kT*kA*d[5mC]*dA*dG*dA*d[5mC]*dG*dA*dA*dT*dT*k[5mC]*k[5mC]*kA) [Compound 958771]	18

Same assay, conditions: Table 10; A-431 cells, 5,000 cells per well, free uptake, 2,000 nM oligonucleotide, approx. 48 hours; primer probe set RTS36584; Yap1 mRNA normalized to RIBOGREEN, percent of untreated control

Substance	YAP1 (% UTC)
958477 (antisense kA*kT*kT*dT*d[5mC]*d[5mC]*dG*dG*dT*dG*d[5mC]*dA*dT*kG*kT*kG) [Compound 958477]	2
958717 (antisense kA*kA*kT*dA*dA*dT*dA*dT*dA*dG*d[5mC]*dT*dT*kA*k[5mC]*kG) [Compound 958717]	11
958457 (antisense kG*kT*k[5mC]*dG*dA*dA*dG*dA*dT*dG*d[5mC]*dT*dG*kA*kG*k[5mC]) [Compound 958457]	5

Same assay, conditions: Table 11; A-431 cells, 5,000 cells per well, free uptake, 2,000 nM oligonucleotide, approx. 48 hours; primer probe set RTS36584; Yap1 mRNA normalized to RIBOGREEN, percent of untreated control

Substance	YAP1 (% UTC)
958543 (kA*k[5mC]*k[5mC]*dT*dT*dA*dT*dA*dG*dT*dA*dT*dT*k[5mC]*kT*kA; antisense) [Compound 958543]	4
958813 (kT*kT*kA*d[5mC]*dA*dG*dA*dG*dA*dG*dA*dT*dT*k[5mC]*kA*kT; antisense) [Compound 958813]	8
958658 (kA*k[5mC]*kA*dG*dT*dA*dT*dA*dA*dT*dA*dT*d[5mC]*k[5mC]*kT*kA; antisense) [Compound 958658]	6
958653 (kT*kT*kA*d[5mC]*dA*d[5mC]*dA*d[5mC]*dA*dG*dG*d[5mC]*dT*kA*kT*kG; antisense) [Compound 958653]	17
958643 (antisense kT*kA*kG*d[5mC]*dA*dA*d[5mC]*d[5mC]*d[5mC]*dA*d[5mC]*d[5mC]*d[5mC]*kT*kG*kG) [Compound 958643]	59
958698 (antisense k[5mC]*kT*kT*dA*dT*dT*dA*dG*d[5mC]*d[5mC]*d[5mC]*dT*d[5mC]*kA*kA*kA) [Compound 958698]	30

Same assay, conditions: Table 12; A-431 cells, 5,000 cells per well, free uptake, 2,000 nM modified oligonucleotide, approx. 48 hours; RTS36584; normalized to RIBOGREEN; Yap1 mRNA relative to untreated control cells

Substance	YAP1 (% UTC)
958519 (k[5mC]*k[5mC]*k[5mC]*d[5mC]*dT*dA*dG*dG*d[5mC]*dA*d[5mC]*dT*dA*kT*k[5mC]*k[5mC]; antisense) [Compound 958519]	20
958789 (antisense kT*kA*k[5mC]*dT*dA*dT*dA*dT*dA*dA*dT*dA*d[5mC]*k[5mC]*k[5mC]*kT) [Compound 958789]	17

Same assay, conditions: Table 13; A-431 cells, 5,000 cells per well, free uptake, 2,000 nM modified oligonucleotide, approx. 48 hours; RTS36584; normalized to RIBOGREEN; Yap1 mRNA relative to untreated control cells

Substance	YAP1 (% UTC)
958620 (antisense kA*kA*kG*d[5mC]*d[5mC]*dT*dT*dG*dG*dG*dT*d[5mC]*dT*kA*kG*k[5mC]) [Compound 958620]	57
958785 (antisense kG*k[5mC]*kA*dA*dT*d[5mC]*d[5mC]*dA*d[5mC]*dA*dA*dT*dT*k[5mC]*k[5mC]*kA) [Compound 958785]	2
958800 (antisense kT*k[5mC]*kG*dA*dT*dA*dA*dT*dA*dT*dA*dT*dG*kG*k[5mC]*kA) [Compound 958800]	22
958600 (kG*kT*kA*dG*dA*dT*d[5mC]*dT*dA*dA*dG*dA*dA*kG*k[5mC]*k[5mC]; antisense) [Compound 958600]	8

Same assay, conditions: Table 26; Yap1 mRNA by 3-10-3 cEt gapmers targeting SEQ ID NO.: 1, and 2; percent of untreated control

Substance	YAP1 (% UTC)
1075948 (antisense kG*kG*kA*d[5mC]*dT*dA*dA*dA*dG*dA*dA*dT*dA*k[5mC]*kA*kG) [compound 1075948]	31
1076204 (kG*kA*kT*dA*dA*dT*dG*dA*dA*dT*d[5mC]*d[5mC]*dT*kT*kG*kT; antisense) [compound 1076204]	11
1074636 (antisense kA*kT*k[5mC]*dT*dA*dT*d[5mC]*dT*dT*d[5mC]*d[5mC]*d[5mC]*dA*kA*kG*k[5mC]) [compound 1074636]	56
1076044 (kA*kT*k[5mC]*dA*dA*dA*dA*dA*dG*dG*d[5mC]*dT*dA*kT*kT*kG; antisense) [compound 1076044]	73

Same assay, conditions: Table 27; Yap1 mRNA by 3-10-3 cEt gapmers targeting SEQ ID NO.: 1, and 2; percent of untreated control

Substance	YAP1 (% UTC)
1074573 (DNA kA*kT*kT*dA*dT*dG*dA*dA*d[5mC]*d[5mC]*dT*dA*d[5mC]*kT*k[5mC]*kA) [compound 1074573]	14

Same assay, conditions: Table 28; Yap1 mRNA as percent of untreated control; 3-10-3 cEt gapmers targeting SEQ ID NO.: 1, and 2

Substance	YAP1 (% UTC)
1075694 (kA*k[5mC]*kA*dT*dT*dA*dA*dA*dA*dG*dT*dT*dG*kG*kG*kT; antisense) [compound 1075694]	11
1074734 (kT*kG*k[5mC]*d[5mC]*dA*dG*dG*dT*dA*dT*d[5mC]*dA*d[5mC]*kA*kG*kT; antisense) [compound 1074734]	51
1075758 (kG*kT*kA*dA*dT*dT*dT*dA*dA*dT*dA*dG*dA*k[5mC]*kT*kA; antisense) [compound 1075758]	73

Same assay, conditions: Table 29; Yap1 mRNA as percent of untreated control; 3-10-3 cEt gapmers targeting SEQ ID NO.: 1, and 2

Substance	YAP1 (% UTC)
1075023 (antisense kG*kT*kA*dT*dT*dT*dA*d[5mC]*dA*dA*d[5mC]*d[5mC]*dT*kA*kG*kA) [compound 1075023]	18
1074863 (kA*kT*kA*dT*dG*dA*dG*d[5mC]*dA*dT*dG*d[5mC]*dT*k[5mC]*kT*kT; antisense) [compound 1074863]	41
1076559 (kA*kA*k[5mC]*dA*dA*dA*dT*dA*dT*dA*dG*dT*dT*kA*kG*k[5mC]; antisense) [compound 1076559]	74
1074159 (k[5mC]*kG*kA*dG*d[5mC]*dG*dA*dG*dG*dG*d[5mC]*dT*dA*k[5mC]*kG*k[5mC]; antisense) [compound 1074159]	77
1074799 (kT*kG*k[5mC]*dT*dT*dT*dG*dG*dA*dA*dG*dA*dT*k[5mC]*kT*kG) [compound 1074799]	8
1075503 (kG*k[5mC]*kT*dG*dA*dA*dA*dA*dA*dG*dG*dG*d[5mC]*kT*kT*kA; antisense) [compound 1075503]	66

Same assay, conditions: Table 34; Yap1 mRNA as percent of untreated control; 3-10-3 cEt gapmers targeting SEQ ID NO: 1 and 2; single dose

Substance	YAP1 (% UTC)
1076532 (kA*kT*kT*dT*dT*dT*dA*dG*dG*d[5mC]*dA*dG*dA*k[5mC]*kG*k[5mC]; antisense) [compound 1076532]	12
1075828 (kT*kT*kA*dG*dA*dA*dT*dA*dG*dT*dT*d[5mC]*dT*kA*k[5mC]*k[5mC]; antisense) [compound 1075828]	59
1075124 (kG*kT*kA*dA*dA*dA*dA*d[5mC]*d[5mC]*dT*dG*dG*dG*kT*kT*kT; antisense) [compound 1075124]	58

Same assay, conditions: Table 35; Yap1 mRNA as percent of untreated control; 3-10-3 cEt gapmers targeting SEQ ID NO: 1 and 2; single dose

Substance	YAP1 (% UTC)
1075637 (antisense k[5mC]*k[5mC]*kA*d[5mC]*dA*dA*d[5mC]*d[5mC]*dT*dG*dT*d[5mC]*dA*kA*kT*kA) [compound 1075637]	100
1074901 (antisense kT*kA*kT*dT*dA*dA*d[5mC]*dT*dT*dT*dT*dG*dG*kG*k[5mC]*kA) [compound 1074901]	61
1076341 (antisense kA*kT*kT*dA*dA*d[5mC]*dT*dA*d[5mC]*dA*dA*d[5mC]*dT*kG*kT*kG) [compound 1076341]	18
1074805 (kG*kT*kA*dG*d[5mC]*dA*dA*dA*dG*dT*d[5mC]*dA*d[5mC]*kT*kT*k[5mC]; antisense) [compound 1074805]	9
1074357 (antisense k[5mC]*kG*kA*dG*dG*dG*dA*d[5mC]*dA*d[5mC]*dT*dG*dT*kA*kG*k[5mC]) [compound 1074357]	12
